Measured values: US20050112573A1, “Method of detecting toxic substance” (priority 2001, published 2005)
Where two headings read alike, the source gives them in different places.

Tests used:
Format in all cases: cell-based, Saccharomyces cerevisiae W303
[1] = tested on: promoter of yeast gene YLR303w; conditions: SC-YCR303W-pQBI cells (so in the source); summary of Table 14
Text: (§1) The inventors of the present application understood that the induction of certain yeast genes by toxic substances is caused by the activation of the promoters of the genes by the toxic substances. Thus, the inventors prepared a vector that comprised a polynucleotide sequence comprising the promoter of the yeast gene, which sequence is operably linked to a polynucleotide encoding a marker protein; and transformed yeast cells with the vector. […] The working examples hereinafter illustrate the preparation of such vectors, transformation of yeast cells by use of said vectors, and the detection of toxic substances by use of the transformed cells.
(§2) Promoter assay is a method for determining variations of the level of intracellular genes without destroying cells on the basis of the level of expressed marker genes instead of the expressed mRNA. The gene selected to detect a chemical substance is expressed in the absence of chemical substances, and thus a marker protein also occurs in the absence of chemical substances. In the method according to the present invention, the behavior of yeast genes on the addition of test materials is determined on the basis of the level of expressed marker protein so that the presence or the absence, and the kind of toxic chemical substances are predicted. Thus, it is desired that the production of marker proteins is lower in the absence of chemical substances, and the production of marker proteins is higher in the presence of chemical substances.
(§3) Type YEp shuttle vector pYES2 (pYES2, Cat no: V825-20, Invirtogen Corporation, USA), which can be replicated both in E. coli. and yeast was used as vector (R. W. Old, S. B. Primrose Principles of Gene Manipulation 5th Ed., BAIFUKAN CO., LTD, pp138-165, pp.234-263, 2000). The portion of vector pQBI 63 (Cat no.54-0082, Wako Pure Chemical Industries, Ltd.) corresponding to a marker protein GFP was used as the polynucleotide encoding GFP (SEQ ID No: 6). First, the GFP polynucleotide was inserted into the multiple cloning sites of pYES2 to give a vector. Thereafter, the GAL1 promoter of pYES2 was replaced with the polynucleotide comprising the promoter sequence of the intended yeast gene YLR303w (SEQ ID No: 5) to give an intended plasmid vector. Suitable restriction enzymes were selected, and the insertion of the polynucleotide comprising GFP and the promoter sequence was conducted.
(§4) Next, the yeast Saccharomyces cerevisiae W303 was transformed with the resultant plasmid vector according to the following procedures: • 1) Incubating the yeast Saccharomyces cerevisiae W303 in 200 ml of SD medium under shaking until OD 660 reaches 0.5; • 2) Suspending the collected cells in 5 ml of TE-buffer; • 3) Adding 250 μL of 2.5M lithium acetate; • 4) Dispending each 300 μl, adding 10 μl of above plasmid vector thereto, then incubating the suspensions at 30° C. for 30 minutes; • 5) Adding 700 μl of 50% PEG4000, and incubating the mixture under shaking at 30° C. for 60 minutes; • 6) Giving heat shock (42° C., 5 minutes), and then immediately cooling the mixture; • 7) Washing the mixture twice with 1M sorbitol; and • 8) Seeding it on agar plates made of minimum essential medium.
(§5) The cells of SC-YCR303W-pQBI as prepared in Example 6 were contacted to one of the following compounds. The yeast cells SC-YCR303W-pQBI were incubated at 25° C. in SD medium (Yeast nitrogen base without amino acids (Difco 0919-15)+glucose+amino acids (adenine, histidine, tryptophan)). One of toxic chemical substances as shown below was added to the cells at logarithmic growth phase, and then the cells were further incubated for two hours.

[2] = tested on: promoter of yeast gene YOR382w
Text: as §1, §2
as §3, with “YOR382w” for “YLR303w”, “3)” for “5)”
as §4
as §5, with “SC-YOR382W-pQBI” for “SC-YCR303W-pQBI”, “4” for “6”

[3] = tested on: promoter of yeast gene YLL057c; conditions: SC-YLL057C-pQBI cells; summary of Table 13
Text: as §1, §2
as §3, with “PQBI” for “pQBI”, “GALL” for “GAL1”, “YLL057c” for “YLR303w”, “4)” for “5)”
as §4
as §5, with “SC-YLL057C-pQBI” for “SC-YCR303W-pQBI”, “5” for “6”

[4] = SC-YOR382W-pQBI cells, summary of Table 12

| SMILES | expression of GFP [1] | expression of GFP [2, 4] | expression of GFP [3] | expression of GFP [2] |
| --- | --- | --- | --- | --- |
| O=C(O)COc1ccc(Cl)cc1Cl [2,4-dichlorophenoxyacetic acid] | induced the expression of GFP | induced the expression of GFP | induced the expression of GFP | – |
| c1ccc2c(c1)cc1ccc3cccc4ccc2c1c34 [benzo(a)pyrene] | induced the expression of GFP | – | – | – |
| CCCCCCCCCc1ccc(O)cc1 [p-nonylphenol] | – | induced the expression of GFP | – | – |
| Oc1ccccc1 [phenol] | – | – | – | induced the expression of GFP |
